Results reported in patent publication US20260308158A1, “TARGETING RNAS ASSOCIATED WITH TAUOPATHIES WITH SMALL MOLECULES” (University of Florida Research Foundation, Incorporated, priority 2023, published 2026).

Columns and labels:
[1] = system: WT MAPT mini-gene (exon 10 splicing); assay: 4R/3R MAPT mRNA by RT-qPCR, HeLa cells transfected with WT mini-gene; assay type: cell-based
Description: RNA Isolation and Real-Time Quantitative PCR (RT-qPCR). HeLa cells were treated as described in the Luciferase Reporter assay to Study Exon 10 Alternative Splicing. LAN5 cells were seeded in 12-well plates at 0.2×10^6 cells per well, treated with compound or ASO, and incubated for 48 h. Compound stocks prepared in DMSO and ASO stocks prepared in water were diluted in growth medium and added to cells. Total RNA was extracted from cells and analyzed via RT-qPCR to determine levels of 3R and 4R tau mRNA. In brief, the cells were washed with 1×DPBS and then lysed in the well using 300 μL of Lysis Buffer provided in a Quick-RNA MiniPrep kit (Zymo Research), which was used to extract total RNA per the manufacturer's protocol including the on-column DNase I digestion. The concentration of total RNA was measured by NanoDrop 2000 (Thermo Fisher Scientific). Only samples with OD260/OD280>1.8 were carried forward for analysis. Reverse transcription (RT) was carried out on 200 ng of total RNA using a qScript cDNA synthesis kit (QuantaBio) in a total volume of 10 μL according to the manufacturer's protocol. […] 4R/3R ratio were analyzed using ΔΔCt method using Equation 2: […]

[2] = system: MAPT exon 10 splicing in primary neurons from htau mice; assay: 4R/3R MAPT mRNA by RT-qPCR in primary neurons from htau mice; assay type: cell-based, human MAPT in htau transgenic mouse neurons; details: 48 h
Description: RNA Isolation and Real-Time Quantitative PCR (RT-qPCR). HeLa cells were treated as described in the Luciferase Reporter assay to Study Exon 10 Alternative Splicing. LAN5 cells were seeded in 12-well plates at 0.2×10^6 cells per well, treated with compound or ASO, and incubated for 48 h. Compound stocks prepared in DMSO and ASO stocks prepared in water were diluted in growth medium and added to cells. Total RNA was extracted from cells and analyzed via RT-qPCR to determine levels of 3R and 4R tau mRNA. In brief, the cells were washed with 1×DPBS and then lysed in the well using 300 μL of Lysis Buffer provided in a Quick-RNA MiniPrep kit (Zymo Research), which was used to extract total RNA per the manufacturer's protocol including the on-column DNase I digestion. The concentration of total RNA was measured by NanoDrop 2000 (Thermo Fisher Scientific). Only samples with OD260/OD280>1.8 were carried forward for analysis. Reverse transcription (RT) was carried out on 200 ng of total RNA using a qScript cDNA synthesis kit (QuantaBio) in a total volume of 10 μL according to the manufacturer's protocol. An Applied Biosystems QS5 384-well PCR system was used to complete qPCR reactions with Power SYBR Green Master Mix (Life Technologies), 600 nM each primer (Table S3), 20 ng of cDNA (1 μL of the RT reaction), in a total volume of 33 μL. Technical triplicates (10 μL each) were aliquoted into 384-well qPCR plates (Applied biosystems, 4483285). Subsequent qPCR analysis was performed using an Applied Biosystems QS5 384-well PCR system (software v.1.3.0). 4R/3R ratio were analyzed using ΔΔCt method using Equation 2: […]
Isolation and Treatment of Primary Neurons from Humanized tau (hTau) Transgenic Mice. All animal studies were completed as approved by the Scripps Florida Institutional Animal Care and Use Committee. […]

DDPAC MAPT SRE RNA = assay: Fluorescent binding affinity, DDPAC SRE RNA; details: inherent fluorescence, n=3
Description: Fluorescent Binding Affinity Measurements. Binding assays were completed as previously described.^30 Briefly, the RNA of interest was folded in 1× Assay Buffer-1 (AB1: 8 mM Na2HPO4, pH 7.0, 185 mM NaCl, and 1 mM EDTA) by heating at 95° C. for 30 s followed by slowly cooling to room temperature. Bovine serum albumin (BSA) was then added to a final concentration of 40 μg/mL to afford 1× Assay Buffer-2 (AB2: 8 mM Na2HPO4, pH 7.0, 185 mM NaCl, 1 mM EDTA, and 40 μg/mL BSA). The RNA solution was serial diluted with 1×AB2. Then, compound of interest was added to the RNA solutions to a final concentration of 0.5 μM. […] Fluorescence intensity was measured using a Tecan Plate Reader (Gain: 100, Integration time: 40 μs). […] The change in fluorescence of the small molecule was calculated by its comparison to samples lacking RNA. Binding affinity was calculated using Equation 1, as previously described:^30
where I and I0 are the measured fluorescence intensity of the compound with or without RNA, respectively, Δε is the difference between the fluorescence intensity with the infinite concentration of RNA and the fluorescence intensity without RNA, [SM]0 and [RNA]0 are the concentrations of the small molecule (SM) and RNA, respectively, and Kd is the dissociation constant.

Kd (DDPAC MAPT SRE RNA): 580 ± 100 nM
Structure (SMILES): COc1cc(N)ncc1CCCN(C)CCCn1cnc2c3ccccc3n(C)c2c1=O [Compound 2, 3-(3-((3-(6-amino-4-methoxypyridin-3-yl)propyl)(methyl)amino)propyl)-5-methyl-3,5-dihydro-4H-pyrimido[5,4-b]indol-4-one]
PSI10 (PSI of MAPT exon 10) vs vehicle ([1]; HeLa, WT mini-gene): downregulated
inhibition at 1.5 µM ([1]; Homo sapiens, 2 at 1.5 μM, 48 h, HeLa WT mini-gene, read-out: reduction of 4R/3R ratio (mRNA)): 41 ± 3%
4R/3R ratio and PSI10 [2]: dose dependent reduction
relative potency (4R/3R ratio and PSI10) [2]: more potent than 1
